# Test results from PubChem BioAssay (NCI).
#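 Following 48 hours of exposure in 96-well plates, responses at five concentrations were used to interpolate endpoints linearly. Abbreviation: GI50, concentration required for 50% inhibition of growth. The concentration for full growth arrest is given as TGI.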
# Assays:
# Test in all cases: NCI tumour cell line growth inhibition, 48 h
# SNB-75 CNS = test system: SNB-75 CNS
# OVCAR-5 ovarian = test system: OVCAR-5 ovarian
# SR leukemia = test system: SR leukemia
# M14 melanoma = test system: M14 melanoma
# EKVX NSCLC = test system: EKVX NSCLC
# CAKI-1 renal = test system: CAKI-1 renal
# SK-MEL-5 melanoma = test system: SK-MEL-5 melanoma
# IGROV1 ovarian = test system: IGROV1 ovarian
# NCI/ADR-RES ovarian = test system: NCI/ADR-RES ovarian
# MCF7 breast = test system: MCF7 breast
SMILES,TGI (SNB-75 CNS),TGI (OVCAR-5 ovarian),TGI (SR leukemia),TGI (M14 melanoma),TGI (EKVX NSCLC),TGI (CAKI-1 renal),TGI (SK-MEL-5 melanoma),TGI (IGROV1 ovarian),GI50 (SNB-75 CNS),GI50 (OVCAR-5 ovarian),GI50 (NCI/ADR-RES ovarian),TGI (NCI/ADR-RES ovarian),GI50 (M14 melanoma),GI50 (EKVX NSCLC),GI50 (CAKI-1 renal),GI50 (MCF7 breast),TGI (MCF7 breast),GI50 (SK-MEL-5 melanoma),GI50 (IGROV1 ovarian),GI50 (SR leukemia)
Cc1cc([N+](=O)[O-])ccc1Nc1cccc(Cl)c1C,52.7 µM,28.8 µM,40.4 µM,29.1 µM,49.8 µM,30.5 µM,29.1 µM,27.6 µM,,,,,,,,,,,,
[N-]=[N+]=NC12CC3C4CC5CC3C(C1)C(C5)C4C2,> 100 µM,> 100 µM,> 100 µM,> 100 µM,> 100 µM,> 100 µM,> 100 µM,> 100 µM,,,,,,,,,,,,
O=[N+]([O-])c1ccc(C2=Nn3cnnc3SC2)o1,51.7 µM,36.8 µM,39.4 µM,32.8 µM,,,31.5 µM,,,,,,,,,,,,,
CCOC(=O)CCCn1c(SC)nc2[nH]cc(-c3ccccc3)c2c1=O,40.1 µM,97.1 µM,,31.6 µM,85.8 µM,45.1 µM,25.7 µM,47 µM,15.1 µM,37.5 µM,18.9 µM,53.1 µM,15.4 µM,24.8 µM,15.8 µM,18.4 µM,76.6 µM,12.9 µM,16.5 µM,
C=CCCCCC/C=C\[C@H](O)C#CC#C/C=C/CO,> 100 µM,> 100 µM,,> 100 µM,> 100 µM,86.6 µM,> 100 µM,53.7 µM,> 100 µM,43.3 µM,23.5 µM,57.3 µM,86.2 µM,52.7 µM,32.6 µM,38.5 µM,> 100 µM,38.5 µM,19.4 µM,
CC(C)=CC/C=C(/C)[C@H]1CC[C@]2(C)[C@@H]1CC[C@@H]1[C@@]3(C)CCCNC(C)(C)[C@@H]3CC[C@]12C,10.8 µM,15.1 µM,,13.8 µM,28.4 µM,3.93 µM,4.3 µM,3.72 µM,2.56 µM,3.86 µM,2.28 µM,5.07 µM,3.46 µM,10.6 µM,1.85 µM,2 µM,3.92 µM,1.91 µM,1.87 µM,
O=c1c2sc(=S)n(-c3ccc(F)cc3)c2ncn1Cc1ccc(F)cc1F,> 100 µM,> 100 µM,,> 100 µM,> 100 µM,> 100 µM,> 100 µM,> 100 µM,94 µM,> 100 µM,> 100 µM,> 100 µM,> 100 µM,> 100 µM,37.7 µM,67.7 µM,> 100 µM,84.3 µM,> 100 µM,
COc1ccc(C(C)=O)cc1N1C(=O)C2C(C1=O)C1(c3ccccc3)C(=O)C2(c2ccccc2)C(c2ccc(C)cc2)=C1c1ccc(C)cc1 (stereo not given),> 100 µM,> 100 µM,> 100 µM,,,> 100 µM,> 100 µM,> 100 µM,> 100 µM,> 100 µM,> 100 µM,> 100 µM,,,17.6 µM,> 100 µM,> 100 µM,> 100 µM,> 100 µM,> 100 µM
COc1cccc(/C=C/c2cc(OC)c(OC)c(OC)c2)c1,60.1 µM,> 100 µM,> 100 µM,> 100 µM,> 100 µM,,> 100 µM,> 100 µM,,,,,,,,,,,,
COC(=O)c1cc2c(s1)C(=O)c1ccccc1-2,> 100 µM,> 100 µM,,> 100 µM,> 100 µM,> 100 µM,> 100 µM,> 100 µM,,,,,,,,,,,,
CCCCCCCCCCCCCC1=NC(C)(C)CN1C(C)C,3 µM,3.05 µM,,3.09 µM,3.17 µM,2.84 µM,3.03 µM,2.26 µM,1.64 µM,1.68 µM,1.67 µM,3.51 µM,1.72 µM,1.49 µM,1.36 µM,1.67 µM,3.13 µM,1.67 µM,1.08 µM,
S=C(Nc1ccccc1)N(/N=C/C=C/c1ccccc1)c1nnc(-c2ccccc2)c(-c2ccccc2)n1,> 100 µM,> 100 µM,,> 100 µM,> 100 µM,> 100 µM,> 100 µM,> 100 µM,,,,,,,,,,,,
Cn1c2ccccc2c2c3c(c4c5cc(Br)ccc5n(C)c4c21)C(=O)N(O)C3=O,0.659 µM,,0.584 µM,,,,0.403 µM,> 100 µM,0.0595 µM,,0.0926 µM,> 100 µM,,,,0.0579 µM,> 100 µM,0.129 µM,0.284 µM,0.0156 µM
O=C(OC(CNc1cc(=O)n(Cc2ccccc2)c(=O)n1Cc1ccccc1)CN1CCCC1)c1ccccc1 (stereo not given),> 100 µM,> 100 µM,,> 100 µM,> 100 µM,> 100 µM,> 100 µM,> 100 µM,16.5 µM,> 100 µM,> 100 µM,> 100 µM,> 100 µM,> 100 µM,> 100 µM,> 100 µM,> 100 µM,> 100 µM,> 100 µM,
O=C(/C=C/c1ccccc1O)c1ccccc1O,> 100 µM,> 100 µM,,,> 100 µM,> 100 µM,> 100 µM,> 100 µM,,,,,,,,,,,,
CC(C)CCN1c2nc(Nc3cc(F)c(O)c(F)c3)ncc2N(C)C(=O)C1C (stereo not given),44.3 µM,> 100 µM,,26.1 µM,> 100 µM,> 77.1 µM,14 µM,> 61.2 µM,13.4 µM,19.1 µM,7.81 µM,> 100 µM,4.59 µM,9.26 µM,2.84 µM,2.85 µM,18.1 µM,2.65 µM,8.83 µM,
NC(=O)NC1C(c2ccccc2)=C1c1ccccc1,,64.4 µM,,39.4 µM,60 µM,> 100 µM,23.6 µM,28.4 µM,,,,27 µM,,,,,33.6 µM,,,
